{"source": "patent US9549918B2", "about": "“Stabilized tacrolimus composition” (priority 2008, dated 2017)"}
{"assay": "Ability of stabilizing agents to dissolve in the melted PEG/Poloxamer vehicle", "format": "physicochemical", "settings": "0.5% w/w of substance mixed with PEG/Poloxamer at 80° C."}
{"molecule": "Oc1cccc2cccnc12", "note": "[8-hydroxychinoline 0.005%, ½SO4, ½H2O, 8-hydroxychinoline]", "Physical state in vehicle": "Not dissolved"}
{"molecule": "N.N.O=C(O)CC(O)(CC(=O)O)C(=O)O", "note": "[Citric acid, (NH4)2]", "Physical state in vehicle": "Not dissolved"}
{"molecule": "N.N.N.O=C(O)CC(O)(CC(=O)O)C(=O)O", "note": "[Citric acid, (NH4)3]", "Physical state in vehicle": "Not dissolved"}
{"molecule": "O=C(O)CC(O)(CC(=O)O)C(=O)O", "note": "[Citric acid, H2O]", "Physical state in vehicle": "Dissolved"}
{"molecule": "O=C([O-])CC(O)(CC(=O)[O-])C(=O)[O-].[Na+].[Na+].[Na+]", "note": "[Citric acid, Na3]", "Physical state in vehicle": "Not dissolved"}
{"molecule": "O=C([O-])CC(O)(CC(=O)O)C(=O)O.[Na+]", "note": "[Citric acid, Na]", "Physical state in vehicle": "Not dissolved"}
{"molecule": "O=C(O)[C@H]1OC(O)[C@H](O)[C@@H](O)[C@@H]1O", "note": "(stereo partly drawn) [D-Glucoronic acid]", "Physical state in vehicle": "Not dissolved"}
{"molecule": "O=C([O-])CN(CCN(CC(=O)[O-])CC(=O)[O-])CC(=O)[O-].[Ca+2].[Na+].[Na+]", "note": "[EDTA, Ca, Na2]", "Physical state in vehicle": "Not dissolved"}
{"molecule": "O=C([O-])CN(CCN(CC(=O)[O-])CC(=O)O)CC(=O)[O-].[Na+].[Na+].[Na+]", "note": "[EDTA, Na3]", "Physical state in vehicle": "Not dissolved"}
{"molecule": "O.O.O=C([O-])CN(CCN(CC(=O)[O-])CC(=O)[O-])CC(=O)[O-].[Na+].[Na+].[Na+].[Na+]", "note": "[EDTA, Na4, 2H2O]", "Physical state in vehicle": "Not dissolved"}
{"molecule": "O=C(O)CN(CCN(CC(=O)O)CC(=O)O)CC(=O)O", "note": "[Ethylene di-amine tetra acetic acid]", "Physical state in vehicle": "Not dissolved"}
{"molecule": "O=C(O)C(=O)O", "note": "[Oxalic acid, 2H2O]", "Physical state in vehicle": "Dissolved"}
{"molecule": "O=C([O-])C(=O)[O-].[Ca+2]", "note": "[Oxalic acid, Ca, xH2O]", "Physical state in vehicle": "Not dissolved"}
{"molecule": "N.N.O=C(O)C(O)C(O)C(=O)O", "note": "(stereo not shown) [Tartaric acid, (NH4)2]", "Physical state in vehicle": "Not dissolved"}
{"molecule": "O.O=C([O-])C(O)C(O)C(=O)[O-].O=C([O-])C(O)C(O)C(=O)[O-].[K+].[K+].[K+].[K+]", "note": "(stereo not shown) [Tartaric acid, K2, ½H2O]", "Physical state in vehicle": "Not dissolved"}
{"molecule": "O=C([O-])C(O)C(O)C(=O)O.[K+]", "note": "(stereo not shown) [Tartaric acid, K]", "Physical state in vehicle": "Not dissolved"}
{"molecule": "O=C(O)C(O)C(O)C(=O)O", "note": "(stereo not shown) [Tartaric acid]", "Physical state in vehicle": "Dissolved"}
{"molecule": "O.O=C([O-])CN(CCN(CC(=O)[O-])CC(=O)[O-])CCN(CC(=O)[O-])CC(=O)[O-].[Ca+2].[Na+].[Na+].[Na+]", "note": "[Triethyleneamine pentaacetic acid, Ca, Na3, H2O]", "Physical state in vehicle": "Not dissolved"}
{"molecule": "EDTA, NH4, H2O", "Physical state in vehicle": "Not dissolved"}
{"assay": "Ability of stabilizing agents to dissolve in the melted PEG/Poloxamer vehicle", "format": "physicochemical", "settings": "0.5% w/w of substance mixed with PEG/Poloxamer at 80° C.; listed as citric acid"}
{"molecule": "O=C(O)CC(O)(CC(=O)O)C(=O)O", "note": "[Citric acid, H2O]", "Physical state in vehicle": "dissolved"}
{"assay": "Ability of stabilizing agents to dissolve in the melted PEG/Poloxamer vehicle", "format": "physicochemical", "settings": "0.5% w/w of substance mixed with PEG/Poloxamer at 80° C.; listed as oxalic acid"}
{"molecule": "O=C(O)C(=O)O", "note": "[Oxalic acid, 2H2O]", "Physical state in vehicle": "dissolved"}
{"assay": "Ability of stabilizing agents to dissolve in the melted PEG/Poloxamer vehicle", "format": "physicochemical", "settings": "0.5% w/w of substance mixed with PEG/Poloxamer at 80° C.; listed as tartaric acid"}
{"molecule": "O=C(O)C(O)C(O)C(=O)O", "note": "(stereo not shown) [Tartaric acid]", "Physical state in vehicle": "dissolved"}
